US7223760B2, “Substituted triazole compounds” (SmithKline Beecham Corporation, priority 1998, dated 2007)

Assays:
Interleukin-1 (IL-1) = Interleukin-1 (IL-1) production by LPS-stimulated human peripheral blood monocytes; type: cell-based; conditions: Monocyte, lipopolysaccharide 50 ng/ml, 24 h
Method: Human peripheral blood monocytes are isolated and purified from either fresh blood preparations from volunteer donors, or from blood bank buffy coats, according to the procedure of Colotta et al, J Immunol, 132, 936 (1984). These monocytes (1×10^6) are plated in 24-well plates at a concentration of 1–2 million/ml per well. The cells are allowed to adhere for 2 hours, after which time non-adherent cells are removed by gentle washing. Test compounds are then added to the cells for 1 h before the addition of lipopolysaccharide (50 ng/ml), and the cultures are incubated at 37° C. for an additional 24 h. At the end of this period, culture supernatants are removed and clarified of cells and all debris. Culture supernatants are then immediately assayed for IL-1 biological activity, either by the method of Simon et al., J. Immunol. Methods, 84, 85, (1985) (based on ability of IL-1 to stimulate a Interleukin 2 producing cell line (EL-4) to secrete IL-2, in concert with A23187 ionophore) or the method of Lee et al., J. ImmunoTherapy, 6 (1), 1–12 (1990) (ELISA assay).

CSBP/p38 = molecular target: T1, CSBP/p38 (Homo sapiens, UniProt Q16539); test: CSBP/p38 Kinase Assay (32P transfer to T669 peptide); type: biochemical; conditions: "in this binding assay or a similar assay"; read-out: positive inhibitory activity, IC50
T1 construct: made in house; host or cells: yeast
T1 sequence (Q16539 whole entry): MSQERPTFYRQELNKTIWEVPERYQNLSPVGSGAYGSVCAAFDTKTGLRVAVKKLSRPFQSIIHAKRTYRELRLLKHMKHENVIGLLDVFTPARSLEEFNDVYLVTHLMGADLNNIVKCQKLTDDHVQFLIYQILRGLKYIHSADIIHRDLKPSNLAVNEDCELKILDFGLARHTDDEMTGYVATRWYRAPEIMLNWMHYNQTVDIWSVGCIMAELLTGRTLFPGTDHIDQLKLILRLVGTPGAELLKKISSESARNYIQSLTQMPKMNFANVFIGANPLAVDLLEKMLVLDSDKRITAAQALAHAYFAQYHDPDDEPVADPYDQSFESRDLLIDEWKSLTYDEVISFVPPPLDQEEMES
Method: This assay measures the CSBP/p38-catalyzed transfer of ^32p from [a-^32P]ATP to threonine residue in an epidermal growth factor receptor (EGFR)-derived peptide (T669) with the following sequence: […] (residues 661–681). (See Gallagher et al., “Regulation of Stress Induced Cytokine Production by Pyridinyl Imidazoles: Inhibition of CSBP Kinase”, BioOrganic & Medicinal Chemistry, 1997, 5, 49–64).
Reactions were carried in round bottom 96 well plate (from Corning) in a […]. Reactions contained (in final concentration): 25 mM Hepes, pH 7.5; 8 mM MgCl2; 0.17 mM ATP (the Km[ATP] of p38 (see Lee et al., Nature 300, n72 pg. 639–746 (December 1994)); 2.5 uCi of [g-32P]ATP; 0.2 mM sodium orthovanadate; 1 mM DTT; 0.1% BSA; 10% glycerol; 0.67 mM T669 peptide; and 2–4 nM of yeast-expressed, activated and purified p38. Reactions were initiated by the addition of [gamma-32P]Mg/ATP, and incubated for 25 min. at 37° C. Inhibitors (dissolved in DMSO) were incubated with the reaction mixture on ice for 30 minutes prior to adding the 32P-ATP. Final DMSO concentration was 0.16%. Reactions were terminated by adding 10 ul of 0.3 M phosphoric acid, and phosphorylated peptide was isolated from the reactions by capturing it on p81 phosphocellulose filters. Filters were washed with 75 mM phosphoric acids, and incorporated 32P was quantified using beta scintillation counter. […]

IC50 (Interleukin-1 (IL-1)) | IC50 (CSBP/p38) | SMILES
< 7 µM |  | Fc1ccc(-c2nc(-c3ccccc3)nn2-c2ccncc2)cc1 [Example 1, 1-(Pyrid-4-yl)-3-phenyl-5-(4-fluorophenyl)-1,2,4-triazole]
 | < 50 µM | Nc1cc(-n2nc(-c3ccccc3)nc2-c2ccc(F)cc2)ncn1 [Example 2, 1-(6-Aminopyrimidin-4-yl)-3-phenyl-5-(4-fluorophenyl)-1,2,4-triazole]
